Laboratory results published in PubChem BioAssay (NCI).
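Exposure lasted 48 hours, with cells grown in 96-well plates and compounds tested at five concentrations. TGI marks complete inhibition of growth.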 Where a SMILES comes first, the peptide text is derived from it. The star is where a group is joined. Boc = CC(C)(C)OC(=O)*; OSu = O=C1CCC(=O)N1O*

Columns and labels:
Assay in all cases: NCI anticancer screen, dose series, 48 h
KM12 colon = tested on: KM12 colon
SK-MEL-5 melanoma = tested on: SK-MEL-5 melanoma
SF-539 CNS = tested on: SF-539 CNS
786-0 renal = tested on: 786-0 renal
NCI-H23 lung = tested on: NCI-H23 lung
OVCAR-3 ovarian = tested on: OVCAR-3 ovarian
PC-3 prostate = tested on: PC-3 prostate
OVCAR-5 ovarian = tested on: OVCAR-5 ovarian
NCI-H460 lung = tested on: NCI-H460 lung
OVCAR-8 ovarian = tested on: OVCAR-8 ovarian

SMILES | TGI (KM12 colon) [µM] | TGI (SK-MEL-5 melanoma) [µM] | TGI (SF-539 CNS) [µM] | TGI (786-0 renal) [µM] | TGI (NCI-H23 lung) [µM] | TGI (OVCAR-3 ovarian) [µM] | TGI (PC-3 prostate) [µM] | TGI (OVCAR-5 ovarian) [µM] | TGI (NCI-H460 lung) [µM] | TGI (OVCAR-8 ovarian) [µM]
CCOC(=O)c1ccc(Nc2c3c(nc4ccccc24)CCCC3)cc1 | > 100 | > 100 | > 100 | > 100 | > 100 | > 100 | > 100 | > 100 | > 100 | > 100
COc1ccc2nc3c([N+](=O)[O-])ccc4c3c(c2c1)NCCN4CCO | 2.35 | 1.15 | 1.56 | 1.46 | 2.45 | 2.91 | 1.56 | 2.95 | 1.18 | 2.01
O=S(=O)(O)c1cc(O)c2c(N=Cc3ccccc3O)cc(S(=O)(=O)O)cc2c1 | > 100 | > 100 | > 100 | > 100 | > 100 | > 100 | > 100 | > 100 | > 100 | > 100
CCCSc1ccc2[nH]c(N3C(=O)/C(=C/c4ccco4)N=C3c3ccccc3)cc2c1 | > 50 | 30.3 | 25 | > 50 | > 50 | > 50 | > 50 | > 50 | > 50 | > 50
COc1ccc2c(CCN)c(C(=O)O)[nH]c2c1 | > 100 | > 100 | > 100 | > 100 | > 100 | > 100 | > 100 | > 100 | > 100 | > 100
CC(NC(=O)C(NC(=O)OC(C)(C)C)C(C)C)C(=O)NCC(=O)ON1C(=O)CCC1=O (stereo not drawn) (Boc-Val-Ala-Gly-OSu; configuration not given here) | > 100 | > 100 | > 100 | > 100 | > 100 | > 100 | > 100 | > 100 | > 100 | > 100
C[C@H](CCC(=O)NCCS(=O)(=O)O)[C@H]1CC[C@H]2[C@@H]3CC[C@@H]4C[C@H](O)CC[C@]4(C)[C@H]3CC[C@]12C | > 100 | > 100 | > 100 | > 100 | > 100 | > 100 | > 100 | > 100 | > 100 | > 100
Cn1c(=O)c(C(=O)Nc2nc(C34CC5CC(CC(C5)C3)C4)cs2)c(O)c2ccccc21 | > 100 | > 100 | > 100 | > 100 | > 100 | > 100 | > 100 | > 100 | > 100 | > 100
CC(=O)OCCCOCn1c(Cc2ccccc2)c(C)c(=O)[nH]c1=O | > 100 | > 100 | > 100 | > 100 | > 100 | > 100 | > 100 | > 100 | > 100 | > 100
N#CCc1n[nH]c(Cc2ccccc2)n1 | > 100 | > 100 | > 100 | > 100 | > 100 | > 100 | > 100 | > 100 | > 100 | > 100
COC(=O)c1c(O)ccc2c1c1c(n2Cc2ccccc2Cl)C(=O)c2ccccc2C1=O | 24.1 | 26.4 | 30 | 36.4 | 29.8 | 21.8 | 26.3 | 39.4 | 23.5 | 51.5
CC(C)/C(Cl)=N\OC(=O)Nc1ccccc1F | 40.3 | 27.9 | 32.1 | 29.9 | 33.7 | 34.4 | 30.9 | 33.3 | 36.2 | 31.4
CCCCC(C#N)(OP1(=O)OC(c2ccccc2)C(C)N1C)c1ccccc1 (stereo not given) | 37.2 | 34.2 | 31.2 | 31.8 | 41.9 | 31 | 32.7 | 32.2 | 31 | 38.8
CC1(C)N=C(C(N)=O)c2ncn(N)c2N1 | > 100 | > 100 | > 100 | > 100 | > 100 | > 100 | > 100 | > 100 | > 100 | > 100
C[C@]12CC[C@H]3[C@@H](CC=C4C[C@@H](N5CCCC5)CC[C@@]43C)[C@@H]1C[C@H](N1CCOCC1)[C@@H]2O | > 100 | > 100 | > 100 | > 100 | > 100 | > 100 | > 100 | > 100 | > 100 | > 100
Cc1cnc2sn(-c3ccc(Oc4ccccc4)cc3)c(=O)c2c1 | 28 | 39.6 | 31.7 | 30.7 | 80.3 | 23.3 | 29.8 | 35.3 | 23.1 | > 100
COC(=O)C1Cc2c(OC)ccc(OC)c2CC(C(=O)OC)C1=O (stereo not given) | > 100 | > 100 | > 100 | > 100 | 85.3 | > 100 | > 100 | > 100 | > 100 | > 100
CC(=O)N=C1N(/C=C2\C(=O)Oc3ccccc3C2=O)C(=O)/C(=C/c2ccc(OC(C)=O)cc2)N1C | > 100 | > 100 | > 100 | > 100 | > 100 | > 100 | > 100 | > 100 | > 100 | > 100
CCCCC(=O)NS(=NC(=O)c1ccccc1)C(Cl)(Cl)Cl (stereo not given) | > 100 | > 100 | > 100 | > 100 | > 100 | > 100 | > 100 | > 100 | > 100 | > 100
Cc1nc(C)c(C(=O)NNC(N)=S)cc1C(=O)NNC(N)=S | > 100 | > 100 | > 100 | > 100 | > 100 | > 100 | > 100 | > 100 | > 100 | > 100
